Measured values reported in PubChem BioAssay AID1259407 (Chemical Carcinogenesis Research Information System (CCRIS), 2018).
Activity calls are given as the source filed them. The rule behind the calls is not given here.

Tested on: CCRIS mutagenicity, Ames/micronucleus/aberration tests
Assay: CCRIS mutagenicity studies
[1] = Test System: AMES SALMONELLA TYPHIMURIUM, Strain/Indicator: TA98, Metabolic Activation: HAMSTER, LIVER, S-9, AROCLOR 1254 (10%), Method: PREINCUBATION
[2] = Test System: AMES SALMONELLA TYPHIMURIUM, Strain/Indicator: TA98, Metabolic Activation: NONE, Method: PREINCUBATION
[3] = Test System: AMES SALMONELLA TYPHIMURIUM, Strain/Indicator: TA98, Metabolic Activation: RAT, LIVER, S-9, AROCLOR 1254 (10%), Method: PREINCUBATION
[4] = Test System: AMES SALMONELLA TYPHIMURIUM, Strain/Indicator: TA100, Metabolic Activation: HAMSTER, LIVER, S-9, AROCLOR 1254 (10%), Method: PREINCUBATION
[5] = Test System: AMES SALMONELLA TYPHIMURIUM, Strain/Indicator: TA100, Metabolic Activation: NONE, Method: PREINCUBATION
[6] = Test System: AMES SALMONELLA TYPHIMURIUM, Strain/Indicator: TA100, Metabolic Activation: RAT, LIVER, S-9, AROCLOR 1254 (10%), Method: PREINCUBATION
[7] = Test System: AMES SALMONELLA TYPHIMURIUM, Strain/Indicator: TA1535, Metabolic Activation: NONE, Method: PREINCUBATION
[8] = Test System: AMES SALMONELLA TYPHIMURIUM, Strain/Indicator: TA1535, Metabolic Activation: RAT, LIVER, S-9, AROCLOR 1254 (10%), Method: PREINCUBATION
[9] = Test System: AMES SALMONELLA TYPHIMURIUM, Strain/Indicator: TA1537, Metabolic Activation: NONE, Method: PREINCUBATION
[10] = Test System: AMES SALMONELLA TYPHIMURIUM, Strain/Indicator: TA100, Metabolic Activation: NONE, Method: STANDARD PLATE

Measured: mutagenic call

COc1ccc([N+](=O)[O-])cc1N=Nc1c(O)c(C(=O)Nc2cccc([N+](=O)[O-])c2)cc2ccccc12
active: [1] active; positive | [2] active; positive | [3] active; positive | [4] active; positive | [5] active; positive | [6] active; positive | Test System: AMES SALMONELLA TYPHIMURIUM, Strain/Indicator: TA1537, Metabolic Activation: HAMSTER, LIVER, S-9, AROCLOR 1254 (10%), Method: PREINCUBATION active; positive | [9] active; positive | Test System: AMES SALMONELLA TYPHIMURIUM, Strain/Indicator: TA1537, Metabolic Activation: RAT, LIVER, S-9, AROCLOR 1254 (10%), Method: PREINCUBATION active; positive
inactive: Test System: AMES SALMONELLA TYPHIMURIUM, Strain/Indicator: TA1535, Metabolic Activation: HAMSTER, LIVER, S-9, AROCLOR 1254 (10%), Method: PREINCUBATION inactive; negative | [7] inactive; negative | [8] inactive; negative

CC/C=C/C#N
inactive: Test System: AMES SALMONELLA TYPHIMURIUM, Strain/Indicator: TA97, Metabolic Activation: HAMSTER, LIVER, S-9, AROCLOR 1254 (10%), Method: PREINCUBATION inactive; negative | Test System: AMES SALMONELLA TYPHIMURIUM, Strain/Indicator: TA97, Metabolic Activation: HAMSTER, LIVER, S-9, AROCLOR 1254 (30%), Method: PREINCUBATION inactive; negative | Test System: AMES SALMONELLA TYPHIMURIUM, Strain/Indicator: TA97, Metabolic Activation: NONE, Method: PREINCUBATION inactive; negative | Test System: AMES SALMONELLA TYPHIMURIUM, Strain/Indicator: TA97, Metabolic Activation: RAT, LIVER, S-9, AROCLOR 1254 (10%), Method: PREINCUBATION inactive; negative | Test System: AMES SALMONELLA TYPHIMURIUM, Strain/Indicator: TA97, Metabolic Activation: RAT, LIVER, S-9, AROCLOR 1254 (30%), Method: PREINCUBATION inactive; negative | [1] inactive; negative | Test System: AMES SALMONELLA TYPHIMURIUM, Strain/Indicator: TA98, Metabolic Activation: HAMSTER, LIVER, S-9, AROCLOR 1254 (30%), Method: PREINCUBATION inactive; negative | [2] inactive; negative | [3] inactive; negative | Test System: AMES SALMONELLA TYPHIMURIUM, Strain/Indicator: TA98, Metabolic Activation: RAT, LIVER, S-9, AROCLOR 1254 (30%), Method: PREINCUBATION inactive; negative | [4] inactive; negative | Test System: AMES SALMONELLA TYPHIMURIUM, Strain/Indicator: TA100, Metabolic Activation: HAMSTER, LIVER, S-9, AROCLOR 1254 (30%), Method: PREINCUBATION inactive; negative | [5] inactive; negative | [6] inactive; negative | Test System: AMES SALMONELLA TYPHIMURIUM, Strain/Indicator: TA100, Metabolic Activation: RAT, LIVER, S-9, AROCLOR 1254 (30%), Method: PREINCUBATION inactive; negative | Test System: AMES SALMONELLA TYPHIMURIUM, Strain/Indicator: TA1535, Metabolic Activation: HAMSTER, LIVER, S-9, AROCLOR 1254 (10 OR 30%), Method: PREINCUBATION inactive; negative | [7] inactive; negative | [8] inactive; negative | Test System: AMES SALMONELLA TYPHIMURIUM, Strain/Indicator: TA1535, Metabolic Activation: RAT, LIVER, S-9, AROCLOR 1254 (30%), Method: PREINCUBATION inactive; negative | Test System: AMES SALMONELLA TYPHIMURIUM, Strain/Indicator: TA1537, Metabolic Activation: HAMSTER, LIVER, S-9, AROCLOR 1254 (10 OR 30%), Method: PREINCUBATION inactive; negative

[N-]=[N+]=NC[C@H]1O[C@H](O)[C@H](O)[C@H](O)[C@@H]1O
active: [10] active; positive
inactive: Test System: AMES SALMONELLA TYPHIMURIUM, Strain/Indicator: TA98, Metabolic Activation: NONE, Method: STANDARD PLATE inactive; negative

CNC(=O)ON(C(C)=O)C(=O)NC
inactive: [10] inactive; negative
active: Test System: AMES SALMONELLA TYPHIMURIUM, Strain/Indicator: TA98, Metabolic Activation: RAT, LIVER, S-9, Method: STANDARD PLATE active; positive

Cc1cccc(C2CO2)c1 (stereo unspecified)
active: Test System: E. COLI, Strain/Indicator: WP2 UVRA, Metabolic Activation: NONE, Method: STANDARD PLATE active; positive

OC[C@@H](O)[C@@H](O[C@@H]1O[C@H](CO)[C@H](O)[C@H](O)[C@H]1O)[C@H](O)[C@@H](O)CO
inactive: [2] inactive; negative | Test System: AMES SALMONELLA TYPHIMURIUM, Strain/Indicator: TA98, Metabolic Activation: RAT, LIVER, S-9, PHENOBARBITAL AND 5,6-BENZOFLAVONE, Method: PREINCUBATION inactive; negative | [5] inactive; negative | Test System: AMES SALMONELLA TYPHIMURIUM, Strain/Indicator: TA100, Metabolic Activation: RAT, LIVER, S-9, PHENOBARBITAL AND 5,6-BENZOFLAVONE, Method: PREINCUBATION inactive; negative | [7] inactive; negative | Test System: AMES SALMONELLA TYPHIMURIUM, Strain/Indicator: TA1535, Metabolic Activation: RAT, LIVER, S-9, PHENOBARBITAL AND 5,6-BENZOFLAVONE, Method: PREINCUBATION inactive; negative | [9] inactive; negative | Test System: AMES SALMONELLA TYPHIMURIUM, Strain/Indicator: TA1537, Metabolic Activation: RAT, LIVER, S-9, PHENOBARBITAL AND 5,6-BENZOFLAVONE, Method: PREINCUBATION inactive; negative | Test System: E. COLI, Strain/Indicator: WP2 UVRA, Metabolic Activation: NONE, Method: PREINCUBATION inactive; negative | Test System: E. COLI, Strain/Indicator: WP2 UVRA, Metabolic Activation: RAT, LIVER, S-9, PHENOBARBITAL AND 5,6-BENZOFLAVONE, Method: PREINCUBATION inactive; negative

CC(C)C(=O)Nc1snc2ccccc12
inactive: [10] inactive; negative | Test System: AMES SALMONELLA TYPHIMURIUM, Strain/Indicator: TA100, Metabolic Activation: S-9, Method: STANDARD PLATE inactive; negative | Test System: AMES SALMONELLA TYPHIMURIUM, Strain/Indicator: TA1537, Metabolic Activation: NONE, Method: STANDARD PLATE inactive; negative | Test System: AMES SALMONELLA TYPHIMURIUM, Strain/Indicator: TA1537, Metabolic Activation: S-9, Method: STANDARD PLATE inactive; negative
